Values joined by “and” are separate entries in the source; they are usually repeats but may differ in a detail not shown here. Equal values may be shown once. Toxic doses and inconclusive results are not listed.

In the experiment the test system is BDF1 mice, P388 leukemia ip, median survival T/C. In words: NCI In Vivo Anticancer Drug Screen. Data for tumor model P388 Leukemia (intraperitoneal) in B6D2F1 (BDF1) mice. Conditions: endpoint: median survival time, higher = longer survival. Summed up:
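Each value expresses how treatment altered survival: treated-mouse outcome over vehicle-mouse outcome, both groups bearing the transplanted tumour.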

The mark [1] stands for this setting: dose: 50.0 mg/kg/injection, schedule: Q01DX009 (ip), vehicle: Klucel (hydroxypropylcellulose) (HPC).
Where [2] appears, read: dose: 50.0 mg/kg/injection, schedule: Q01DX009 (ip), vehicle: saline with Tween-80.
The mark [3] stands for this setting: dose: 200.0 mg/kg/injection, schedule: Q01DX009 (ip), vehicle: saline with Tween-80.
[4] abbreviates: dose: 100.0 mg/kg/injection, schedule: Q04DX003 (ip), vehicle: saline with Tween-80.
[5] abbreviates: dose: 100.0 mg/kg/injection, schedule: Q01DX009 (ip), vehicle: Klucel (hydroxypropylcellulose) (HPC).
Where [6] appears, read: dose: 100.0 mg/kg/injection, schedule: Q01DX009 (ip), vehicle: saline with Tween-80.
The mark [7] stands for this setting: dose: 400.0 mg/kg/injection, schedule: Q01DX009 (ip), vehicle: saline with Tween-80.
Where [8] appears, read: dose: 200.0 mg/kg/injection, schedule: Q04DX003 (ip), vehicle: saline with Tween-80.
Where [9] appears, read: dose: 400.0 mg/kg/injection, schedule: Q04DX003 (ip), vehicle: saline with Tween-80.

Consider `NC(CSC(c1ccccc1)(c1ccccc1)c1ccc(CO)cc1)C(=O)O` (centres undefined), for which the T/C is 100 % of control (dose: 3.0 mg/kg/injection, schedule: Q01DX009 (ip), vehicle: Klucel (hydroxypropylcellulose) (HPC)); 113 % of control (dose: 6.0 mg/kg/injection, schedule: Q01DX009 (ip), vehicle: Klucel (hydroxypropylcellulose) (HPC)); 122 % of control (dose: 12.0 mg/kg/injection, schedule: Q01DX009 (ip), vehicle: Klucel (hydroxypropylcellulose) (HPC)); 109 % of control (dose: 12.0 mg/kg/injection, schedule: Q01DX009 (ip), vehicle: saline); 100 % of control (dose: 12.0 mg/kg/injection, schedule: Q04DX003 (ip), vehicle: saline); 150 % of control (dose: 25.0 mg/kg/injection, schedule: Q01DX009 (ip), vehicle: Klucel (hydroxypropylcellulose) (HPC)). The T/C was 159 % of control (dose: 25.0 mg/kg/injection, schedule: Q01DX009 (ip), vehicle: saline); 103 % of control (dose: 25.0 mg/kg/injection, schedule: Q04DX003 (ip), vehicle: saline); 168 % of control under setting [1]; 163 % of control (dose: 50.0 mg/kg/injection, schedule: Q01DX009 (ip), vehicle: saline); 111 % of control (dose: 50.0 mg/kg/injection, schedule: Q04DX003 (ip), vehicle: saline); 159 % of control (dose: 75.0 mg/kg/injection, schedule: Q01DX009 (ip), vehicle: Klucel (hydroxypropylcellulose) (HPC)). Moreover, the T/C is 154 % of control (dose: 150.0 mg/kg/injection, schedule: Q01DX009 (ip), vehicle: Klucel (hydroxypropylcellulose) (HPC)); 259 % of control (dose: 300.0 mg/kg/injection, schedule: Q01DX009 (ip), vehicle: Klucel (hydroxypropylcellulose) (HPC)); 272 % of control (dose: 400.0 mg/kg/injection, schedule: Q01DX009 (ip), vehicle: Klucel (hydroxypropylcellulose) (HPC)); 155 % of control (dose: 400.0 mg/kg/injection, schedule: Q04DX003 (ip), vehicle: saline).
For `C=CCCc1cc(OC)ccc1C(=O)C(C)C`, the T/C is, setting by setting: under setting [2], 112 % of control; under setting [3], 119 % of control.
`CC(=O)Oc1c(Br)c(-c2cc([N+](=O)[O-])c(C)c([N+](=O)[O-])c2C)c(OC(C)=O)c(Br)c1-c1cc([N+](=O)[O-])c(C)c([N+](=O)[O-])c1C`: the T/C is, setting by setting: (dose: 50.0 mg/kg/injection, schedule: Q01DX001 (ip), vehicle: Klucel (hydroxypropylcellulose) (HPC)) 112 % of control; (dose: 100.0 mg/kg/injection, schedule: Q01DX001 (ip), vehicle: Klucel (hydroxypropylcellulose) (HPC)) 115 % of control; (dose: 200.0 mg/kg/injection, schedule: Q01DX001 (ip), vehicle: Klucel (hydroxypropylcellulose) (HPC)) 115 % of control; (dose: 400.0 mg/kg/injection, schedule: Q01DX001 (ip), vehicle: Klucel (hydroxypropylcellulose) (HPC)) 106 % of control.
As for `Oc1ccc2ccccc2c1/C=N\Sc1ccc(Br)cc1`, the T/C runs as follows: (dose: 25.0 mg/kg/injection, schedule: Q04DX003 (ip), vehicle: saline with Tween-80) 103 % of control; (dose: 50.0 mg/kg/injection, schedule: Q04DX003 (ip), vehicle: saline with Tween-80) 100 % of control; under setting [4], 112 % of control.
Take `Oc1ccccc1C1N=NC2=C(CCCC2)N1O` (centres undefined): the T/C runs as follows: under setting [1], 99 % of control; under setting [5], 93 % of control.
Turning to `CCCCCCCCCCCCCSCCCCCCCCCCCCSCCCCCCCCCCCC`, the T/C reads like this: (dose: 100.0 mg/kg/injection, schedule: Q01DX001 (ip), vehicle: saline sonified) 86 % of control; (dose: 200.0 mg/kg/injection, schedule: Q01DX001 (ip), vehicle: saline sonified) 86 % of control; (dose: 400.0 mg/kg/injection, schedule: Q01DX001 (ip), vehicle: saline sonified) 90 % of control.
For `O=C(Nc1cc(Cl)ccc1Cl)c1ccc(C(=O)Nc2cc(Cl)ccc2Cl)cc1`, the T/C under setting [6] was 94 % of control, the T/C under setting [3] was 91 % of control and the T/C under setting [7] is 110 % of control.
As to `Cc1nn2c(=O)[nH]cnc2c1Cl`, the T/C reads like this: under setting [6], 93 % of control; under setting [3], 100 % of control; under setting [8], 95 % of control; under setting [9], 109 % of control.
On to `COc1cc([N+](=O)[O-])cc(OC)c1OC`, for which the T/C runs as follows: under setting [2], 100 % of control; under setting [6], 94 % of control; under setting [3], 102 % of control; under setting [7], 91 % of control.
As for `CN(C)C(=S)NN`, the T/C runs as follows: (dose: 0.25 mg/kg/injection, schedule: Q01DX009 (ip), vehicle: saline with Tween-80) 90 % of control; (dose: 0.5 mg/kg/injection, schedule: Q01DX009 (ip), vehicle: saline with Tween-80) 90 % of control; (dose: 0.78 mg/kg/injection, schedule: Q04DX003 (ip), vehicle: saline with Tween-80) 100 % of control; (dose: 1.0 mg/kg/injection, schedule: Q01DX009 (ip), vehicle: saline with Tween-80) 95 % of control; (dose: 1.56 mg/kg/injection, schedule: Q04DX003 (ip), vehicle: saline with Tween-80) 105 % of control; (dose: 3.12 mg/kg/injection, schedule: Q04DX003 (ip), vehicle: saline with Tween-80) 95 % of control and 105 % of control.
As for `CC1(C)N=C(N)N=C(N)N1c1ccc(OCCOc2ccc(NC(=O)CBr)cc2)cc1`, the T/C (dose: 2.5 mg/kg/injection, schedule: Q01DX009 (ip), vehicle: saline with Tween-80) was 95 % of control; the T/C (dose: 5.0 mg/kg/injection, schedule: Q01DX009 (ip), vehicle: saline with Tween-80) was 112 % of control; the T/C under setting [6] is 172 % of control; the T/C (dose: 100.0 mg/kg/injection, schedule: Q01DX009 (ip), vehicle: saline) was 230 % of control; the T/C (dose: 100.0 mg/kg/injection, schedule: Q04DX003 (ip), vehicle: saline sonified) is 165 % of control and 170 % of control; the T/C (dose: 150.0 mg/kg/injection, schedule: Q01DX009 (ip), vehicle: saline with Tween-80) is 218 % of control. Moreover, the T/C (dose: 150.0 mg/kg/injection, schedule: Q04DX003 (ip), vehicle: saline sonified) is 165 % of control; the T/C (dose: 200.0 mg/kg/injection, schedule: Q01DX009 (ip), vehicle: saline) was 90 % of control; the T/C (dose: 200.0 mg/kg/injection, schedule: Q04DX003 (ip), vehicle: saline sonified) is 200 % of control; the T/C (dose: 400.0 mg/kg/injection, schedule: Q04DX003 (ip), vehicle: saline sonified) is 245 % of control.
For the compound `CCCN1CSC(=S)N(CCC)C1`, the T/C was 100 % of control under setting [1] and 170 % of control under setting [5].
As for `OCC1CSC(c2ccccc2)N1` (centres undefined), the T/C under setting [2] is 86 % of control, the T/C under setting [6] is 115 % of control and the T/C under setting [3] is 103 % of control.
Take `CCOC(=O)CNCc1ccc(Cl)c(Cl)c1`: the T/C runs as follows: (dose: 50.0 mg/kg/injection, schedule: Q04DX003 (ip), vehicle: water) 111 % of control; (dose: 100.0 mg/kg/injection, schedule: Q04DX003 (ip), vehicle: water) 113 % of control; (dose: 200.0 mg/kg/injection, schedule: Q04DX003 (ip), vehicle: water) 111 % of control.
In the case of `CCCCCCCCCCCC[N+](C)(C)CCCCCC[N+](C)(C)CCCCCCCCCCCC`, the T/C is, setting by setting: (dose: 3.13 mg/kg/injection, schedule: Q01DX009 (ip), vehicle: saline) 113 % of control; (dose: 6.25 mg/kg/injection, schedule: Q01DX009 (ip), vehicle: saline) 116 % of control; (dose: 12.5 mg/kg/injection, schedule: Q01DX009 (ip), vehicle: saline) 94 % of control.
As to `Nc1ccc(N(CCCl)CCN(CCCl)c2ccc(N)cc2)cc1`, the T/C by setting is: (dose: 0.8 mg/kg/injection, schedule: Q01DX009 (ip), vehicle: saline) 154 % of control; (dose: 1.2 mg/kg/injection, schedule: Q01DX009 (ip), vehicle: saline) 181 % of control; (dose: 1.8 mg/kg/injection, schedule: Q01DX009 (ip), vehicle: saline) 204 % of control.
In the case of `Cc1cccc(NC=O)c1`, the T/C reads like this: under setting [2], 109 % of control; (dose: 75.0 mg/kg/injection, schedule: Q01DX009 (ip), vehicle: saline with Tween-80) 113 % of control; under setting [4], 115 % of control; (dose: 115.0 mg/kg/injection, schedule: Q01DX009 (ip), vehicle: saline with Tween-80) 104 % of control; under setting [8], 96 % of control; (dose: 225.0 mg/kg/injection, schedule: Q01DX009 (ip), vehicle: saline with Tween-80) 109 % of control. Further, the T/C was 113 % of control (dose: 300.0 mg/kg/injection, schedule: Q01DX009 (ip), vehicle: saline with Tween-80) and 96 % of control under setting [9].

Source of the values: PubChem BioAssay AID328 (DTP/NCI, 2004).
